Assay results from US20080132564A1, “MICELLAR DRUG DELIVERY VEHICLES AND PRECURSORS THERETO AND USES THEREOF” (ANGIOTECH INTERNATIONAL AG, priority 2001, published 2008).

Columns and labels:
[1] = Recovery of paclitaxel added to polymer mixtures after heating (reverse phase HPLC, UV detection); format: physicochemical
Method: The desirability of removing unreacted starting materials and/or acidic reaction by-products can be seen by reference to the data in Table 1. […] According to the data, when paclitaxel is combined with a diblock copolymer having up to 2% residual monomer and up to 0.2 μmol/mg acid content (expressed as the number of protons titrated in a solution prepared by dissolving 1 mg of diblock copolymer in water), after heating, only 95% of the paclitaxel initially added to the mixture could be recovered, as quantified using a reverse phase HPLC assay with UV detection and a taxane optimized C18 column.

[2] = Solubility of paclitaxel in organic solvents

paclitaxel initially added that could be recovered after heating ([1]; combined with diblock copolymer having up to 2% residual monomer and up to 0.2 μmol/mg acid content): 95%
paclitaxel recovered after heating ([1]; combined with methoxypolyethylene glycol having no measured acidic components and no DL-lactide monomer): 99%
paclitaxel that could be recovered after heating ([1]; diblock copolymer with greatly reduced quantities of residual monomer and acidic components): 98%
amount of paclitaxel that may be dissolved in NMP ([2]; in 1 mL of NMP): 535 mg
amount of paclitaxel that may be dissolved in ethanol ([2]; in ethanol (volume not given)): 26 mg
Structure (SMILES): CC(=O)O[C@H]1C(=O)[C@@]2(C)[C@H]([C@H](OC(=O)c3ccccc3)[C@]3(O)C[C@H](OC(=O)[C@H](O)[C@@H](NC(=O)c4ccccc4)c4ccccc4)C(C)=C1C3(C)C)[C@]1(OC(C)=O)CO[C@@H]1C[C@@H]2O [paclitaxel]
